# Measurements taken from US4404230A, “4-Hydroxy-1,2-Benzisothiazol-3(2H)-one-1,1-dioxides and salts thereof” (priority 1980, dated 1983).
# Legend:
# [1] = test system: thrombocyte aggregation; test: Effect on thrombocyte aggregation induced by collagen; format: cell-based; settings: 1×10^-4 mol/liter, collagen-induced
# Procedure: The thrombocyte aggregation was measured according to Born and Cross [J. Physiol. 170, 397 (1964)] in platelet-rich plasma obtained by centrifuging citrate blood. The change in the maximum aggregation rate in % compared with a control, and the percent change in the "optical density" were the measured parameters. The aggregation was induced by collagen.
# [2] = test system: Streptococcus Aronson; test: Bacteriostasis, serial dilution test; format: cell-based; settings: 320 μg/ml
# Procedure: (§1) Substance B was tested with regard to its bacteria- and fungi-inhibiting effect by the serial dilution test and agar diffusion test.
# [3] = test system: Staphylococcus aureus SG 511; test: Bacteriostasis, serial dilution test; format: cell-based; settings: 320 μg/ml
# Procedure: as §1
# [4] = test system: Serratia marcescens ATCC 13880; test: Bacteriostasis, serial dilution test; format: cell-based; settings: 320 μg/ml
# Procedure: as §1
# [5] = test system: Sc. pyogenes ATCC 8688; test: Bacteriostasis, serial dilution test; format: cell-based; settings: 320 μg/ml
# Procedure: as §1
# [6] = test system: Escherichia coli ATCC 9637; test: Bacteriostasis, serial dilution test; format: cell-based; settings: 320 μg/ml
# Procedure: as §1
# [7] = test system: Pseudomonas aeruginosa Hbg.; test: Bacteriostasis, serial dilution test; format: cell-based; settings: 320 μg/ml
# Procedure: as §1
# [8] = test system: anesthetized cats; test: Effect on the blood circulation in anesthetized cats; format: in vivo; settings: 10 mg/kg i.v.
# Procedure: In 3 adult anesthetized cats the following parameters were measured:
# The arterial blood pressure in the Arteria carotis by means of a Statham pressure transducer;
# The heart rate by means of a Grass-tachograph;
# The respiration rate by means of a Fleisch pneumotachograph;
# 10 mg/kg of substance B as a solution in aqua dist. were administered i.v.
# [9] = test system: mice; test: Effect on motility of mice (sedative and stimulating effect); format: in vivo, Chbb:NMRI-mice; settings: 200 mg/kg p.o.; for % motility: vs control
# Procedure: Eight female Chbb:NMRI-mice (SPF) having a body weight from 20 to 26 g were tested in light beam cages after oral administration of the test compound in a suspension of 1% tylose. 30, 90 and 150 minutes after administration of the test compound, their motility was measured for 5 minutes each; a control group received only the solvent (tylose:carboxymethyl cellulose). The change in motility, given in percent with regard to that of the control group, was determined.
# [10] = test system: Dog; test: Test for acute toxicity, dog; settings: for Animals which died: 2 animals
# Procedure: The acute toxicity was determined after oral administration of substance B to male and female mice, rats and dogs. The substance was administered to mice and rats in the form of a suspension in tylose and to dogs in the form of a solution in water.
# [11] = Determination of water-solubility; format: physicochemical
# [12] = test system: mice; test: Effect on the duration of hexobarbital anesthesia in mice; format: in vivo, Chbb:NMRI-mice; settings: 100 mg/kg p.o.
# Procedure: According to Winter [Pharmacol. exp. Ther. 94, 7, (1948)], 100 mg/kg of substance B in a suspension of 1% tylose were administered perorally to 10 male Chbb:NMRI-mice (SPF) having a body weight of 20 to 26 gm. A control group received only the suspension agent. After 1 hour all animals were injected i.p. with 80 mg/kg of hexobarbital. The mice were put on a metal plate at 37° C. and the time from the beginning of the loss of the righting reflex until the recurrence of this reflex was measured as the duration of the anesthesia. This time difference was calculated in percent with regard to that of the control group.
# [13] = test system: Salmonella typhimurium; test: Prior serial dilution test for inhibition of microorganism growth (AMES-system); format: cell-based; settings: highest dosage used
# Procedure: Compound B was tested at concentrations of 0.25, 2.5, 5 and 10 mg/plate.
# [14] = test system: eye of the rabbit; test: Local compatibility in the eye of the rabbit (mucosa compatibility); format: in vivo
# Description: Groups of 4 rabbits each of both sexes were given 1 drop of a 1% solution of substance B in aqua dist. into the conjunctival sack of the eye. […] The second eye of each animal served as control.
# [15] = Acid-stability in 0.1 N hydrochloric acid; format: physicochemical; settings: 1% in 0.1 N hydrochloric acid, room temperature, 27 days
# Procedure: For the stability test, substance B at a concentration of 1% was dissolved in 0.1 N hydrochloric acid and kept at room temperature for 27 days. […] The solid substance was furthermore tested in daylight and at 60° C. in the absence and in the presence of light for 4 weeks.
# [16] = test system: taste testers; test: Determination of the taste quality; format: in vivo
# Procedure: The tests were performed in analogy to the method of DuBois, G. A. Crosby, R. A. Stephanson and R. E. Wingard Jr., J. Agric. […] The test compounds were used as aqueous solutions at a concentration which corresponds to an about 5% saccharose solution. As comparison compound saccharose was used. The tests were carried out under identical conditions. Only the characterization of the taste was evaluated, because the intensity was already determined in the preceding experiments. The following criteria were determined by each tester: Percentage sweet to percentage bitter to percentage another taste quality. Furthermore, the presence or absence of an after taste of the individual test compounds was determined. Each substance was tested twice with regard to five different determinations.
# [17] = vs values before administration, N = 3
smiles,measurement,setting,value
O=C1NS(=O)(=O)c2cccc(O)c21.[Na],effect on thrombocyte aggregation (in words),[1],does not show any effect on thrombocyte aggregation induced by collagen
same,inhibiting effect,[2],did not show any inhibiting effect
same,inhibiting effect,[3],did not show any inhibiting effect
same,inhibiting effect,[4],did not show any inhibiting effect
same,inhibiting effect,[5],did not show any inhibiting effect
same,inhibiting effect,[6],did not show any inhibiting effect
same,inhibiting effect,[7],did not show any inhibiting effect
same,"effect on arterial blood pressure, heart rate and respiration rate (in words)",[8],"does not show any effect on the arterial blood pressure, the heart rate and the respiration rate"
same,Change in % blood pressure,[8]; [17],+1%
same,Change in % heart rate,[8]; [17],-1%
same,Change in % respiration rate,[8]; [17],-2%
same,effect on motility of mice (in words),[9],did not affect the motility of mice
same,Motility of mice,[9]; 30-35 min,92 ± 21 contacts/animal
same,% motility,[9]; 30-35 min,102%
same,Motility of mice,[9]; 90-95 min,84 ± 28 contacts/animal
same,% motility,[9]; 90-95 min,101%
same,Motility of mice,[9]; 150-155 min,49 ± 17 contacts/animal
same,% motility,[9]; 150-155 min,72%
same,Animals which died,"[10]; 5 g/kg oral, 1 day",0
same,Animals which died,"[10]; 5 g/kg oral, 7 days",0
same,Animals which died,"[10]; 5 g/kg oral, 14 days",0
same,deaths (in words),"[10]; 5 g/kg oral, during the observation time",no animals died
same,behavior,"[10]; dog, in vivo, po",completely normal behavior
same,toxic symptoms,"[10]; dog, in vivo, po",no toxic symptoms could be observed
same,solubility,[11],> 1 gm/10 ml of water
same,water-solubility (in words),[11],easily soluble in water
same,effect on duration of hexobarbital anesthesia (in words),[12],does not show any effect on the duration of hexobarbital anesthesia
same,Duration of anesthesia,[12]; hexobarbital 80 mg/kg i.p.,15.65 ± 6.32 min
same,"Duration of anesthesia, % of control",[12]; hexobarbital 80 mg/kg i.p.,106%
same,inhibition of the microorganism growth,[13],did not show an inhibition of the microorganism growth
same,change in the pupil,[14]; 1% solution,no change in the pupil
same,irritation of the conjunctiva,[14]; 1% solution,No irritation of the conjunctiva
same,change in the pupil,[14]; 10%,no change in the pupil
same,irritation of the conjunctiva,[14]; 10%,No irritation of the conjunctiva
same,incompatibility when dropped into the eye (in words),"[14]; rabbit, in vivo",does not show any incompatibility
same,stability in acid medium,[15],No changes could be detected
same,purity of the taste,[16],94-96%
same,After taste,"[16]; 1:10000, 10 determinations",5
same,Percentage bitter,"[16]; 1:10000, 10 determinations",2%
same,Percentage other taste,"[16]; 1:10000, 10 determinations",2%
same,Percentage sweet,"[16]; 1:10000, 10 determinations",96%
